The source of these data is ChEMBL document CHEMBL4418913, “Modulation of K2P channels” (2018).

SMILES strings stand for the structures. Active and inactive are the calls of the source. No cut-off for these calls is given here.

For experiment [1], the target named is T1, Potassium channel subfamily K member 4 (Homo sapiens) (UniProt Q9NYG8).
T1 sequence (whole entry): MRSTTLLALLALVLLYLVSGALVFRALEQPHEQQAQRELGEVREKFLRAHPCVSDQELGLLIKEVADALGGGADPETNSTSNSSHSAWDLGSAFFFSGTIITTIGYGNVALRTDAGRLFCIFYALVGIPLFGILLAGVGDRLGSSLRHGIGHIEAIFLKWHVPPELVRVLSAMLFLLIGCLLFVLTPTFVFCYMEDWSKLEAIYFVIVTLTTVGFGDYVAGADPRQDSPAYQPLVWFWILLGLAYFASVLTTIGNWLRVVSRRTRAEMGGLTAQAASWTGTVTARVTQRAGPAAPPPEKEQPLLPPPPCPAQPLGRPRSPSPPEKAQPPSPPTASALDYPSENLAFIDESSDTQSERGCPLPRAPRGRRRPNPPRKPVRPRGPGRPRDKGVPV
Briefly: Binding affinity to K2P4.1 (unknown origin) assessed as induction of protein cross linking and labelling at 1 to 200 uM following 254 nm UV light irradiation for 30 secs by SDS-PAGE analysis.

For experiment [2], the target named is T2, Potassium channel subfamily K member 2 (Homo sapiens) (UniProt O95069).
T2 sequence (whole entry): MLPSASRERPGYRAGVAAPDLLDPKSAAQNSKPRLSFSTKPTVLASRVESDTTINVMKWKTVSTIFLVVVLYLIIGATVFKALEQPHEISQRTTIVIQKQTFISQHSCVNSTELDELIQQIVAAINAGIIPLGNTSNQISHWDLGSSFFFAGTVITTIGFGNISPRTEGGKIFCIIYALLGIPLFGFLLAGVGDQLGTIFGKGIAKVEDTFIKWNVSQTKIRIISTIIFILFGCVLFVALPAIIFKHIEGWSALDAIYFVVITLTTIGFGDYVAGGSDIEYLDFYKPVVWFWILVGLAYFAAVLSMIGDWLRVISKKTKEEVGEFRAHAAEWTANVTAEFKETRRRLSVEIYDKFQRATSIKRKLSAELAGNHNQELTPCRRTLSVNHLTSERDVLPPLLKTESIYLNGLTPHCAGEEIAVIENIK
Briefly: Activation of K2P2.1 (unknown origin) expressed in Xenopus oocytes assessed as effect on channel currents at 400 uM by two-electrode voltage clamp assay. The format is cell-based.

For experiment [3], the target named is T2, Potassium channel subfamily K member 2 (Homo sapiens). Briefly: Activation of K2P2.1 (unknown origin) expressed in Xenopus oocytes assessed as effect on channel currents at -80 mV holding potential by two-electrode voltage clamp assay relative to untreated control. The format is cell-based. (In general: Two-electrode voltage clamp holds a large cell at a set potential and records current.)

Experiment [4] has the same target. Briefly: Reversible modulatory activity at K2P2.1 (unknown origin) expressed in Xenopus oocytes assessed as effect on channel currents at 100 uM at -80 mV holding potential by two-electrode voltage clamp assay. The format is cell-based.
Experiment [5] deals with Potassium voltage-gated channel subfamily KQT member 2 (Homo sapiens) (UniProt O43526). Briefly: Activation of Kv7.2 (unknown origin) expressed in Xenopus oocytes assessed as effect on channel currents by two-electrode voltage clamp assay. The format is cell-based.
Experiment [6] concerns the target T2, Potassium channel subfamily K member 2 (Homo sapiens). Briefly: Reversible activation of K2P2.1 (unknown origin) expressed in Xenopus oocytes assessed as effect on channel currents at 50 uM at -80 mV holding potential by two-electrode voltage clamp assay. Format: cell-based.
For experiment [7] the target is unchanged. Briefly: Reversible activation of K2P2.1 (unknown origin) expressed in HEK293T cells assessed as effect on channel currents at 10 uM at -80 mV holding potential by whole cell patch clamp assay relative to untreated control. Format: cell-based. In general terms: The patch-clamp technique gives a direct electrical read-out from membranes.
Experiment [8] shares this target. Briefly: Activation of K2P2.1 (unknown origin) expressed in HEK293T cells outside out excised patches assessed as effect on channel currents at 20 uM at -40 mV holding potential by […] patch clamp assay relative to untreated control. The format is cell-based.
The target is the same in experiment [9]. Briefly: Activation of K2P2.1 (unknown origin) expressed in HEK293T cells inside out excised patches assessed as effect on channel currents at 20 uM at -40 mV holding potential by patch clamp assay relative to untreated control. Format: cell-based.
Experiment [10] has the same target. Briefly: Activation of K2P2.1 (unknown origin) expressed in Xenopus oocytes assessed as effect on channel currents at 50 uM in presence of 90 mM [K+]o-induced extracellular C-type gate stabilization by two-electrode voltage clamp assay. The format is cell-based.
Experiment [11] relates to Potassium channel subfamily K member 2 (Homo sapiens), O95069 [UNDEFINED MUTATION]. Briefly: Activation of K2P2.1 G137I mutant (unknown origin) expressed in Xenopus oocytes assessed as effect on channel currents at 50 uM by two-electrode voltage clamp assay. The format is cell-based.
For experiment [12] the test system is unchanged. Briefly: Activation of K2P2.1 W275S mutant (unknown origin) expressed in Xenopus oocytes assessed as effect on channel currents at 50 uM by two-electrode voltage clamp assay. Format: cell-based.
For experiment [13], the species on record is Homo sapiens. Briefly: Activation of K2P2.1 triple Glycine mutant (unknown origin) expressed in Xenopus oocytes assessed as effect on channel currents at 50 uM by two-electrode voltage clamp assay. Format: cell-based.
The target of experiment [14] is T2, Potassium channel subfamily K member 2 (Homo sapiens). Briefly: Reversible activation of K2P2.1 (unknown origin) expressed in HEK293T cells assessed as effect on channel currents at 5 to 20 uM by […] assay. The format is cell-based.
The target is the same in experiment [15]. Briefly: Inhibition of K2P2.1 (unknown origin) expressed in Xenopus oocytes assessed as effect on channel currents at 100 to 500 uM at 40 mV holding potential by two-electrode voltage clamp assay. The format is cell-based.

Potassium voltage-gated channel subfamily KQT member 2 (Homo sapiens), sequence (O43526 whole entry): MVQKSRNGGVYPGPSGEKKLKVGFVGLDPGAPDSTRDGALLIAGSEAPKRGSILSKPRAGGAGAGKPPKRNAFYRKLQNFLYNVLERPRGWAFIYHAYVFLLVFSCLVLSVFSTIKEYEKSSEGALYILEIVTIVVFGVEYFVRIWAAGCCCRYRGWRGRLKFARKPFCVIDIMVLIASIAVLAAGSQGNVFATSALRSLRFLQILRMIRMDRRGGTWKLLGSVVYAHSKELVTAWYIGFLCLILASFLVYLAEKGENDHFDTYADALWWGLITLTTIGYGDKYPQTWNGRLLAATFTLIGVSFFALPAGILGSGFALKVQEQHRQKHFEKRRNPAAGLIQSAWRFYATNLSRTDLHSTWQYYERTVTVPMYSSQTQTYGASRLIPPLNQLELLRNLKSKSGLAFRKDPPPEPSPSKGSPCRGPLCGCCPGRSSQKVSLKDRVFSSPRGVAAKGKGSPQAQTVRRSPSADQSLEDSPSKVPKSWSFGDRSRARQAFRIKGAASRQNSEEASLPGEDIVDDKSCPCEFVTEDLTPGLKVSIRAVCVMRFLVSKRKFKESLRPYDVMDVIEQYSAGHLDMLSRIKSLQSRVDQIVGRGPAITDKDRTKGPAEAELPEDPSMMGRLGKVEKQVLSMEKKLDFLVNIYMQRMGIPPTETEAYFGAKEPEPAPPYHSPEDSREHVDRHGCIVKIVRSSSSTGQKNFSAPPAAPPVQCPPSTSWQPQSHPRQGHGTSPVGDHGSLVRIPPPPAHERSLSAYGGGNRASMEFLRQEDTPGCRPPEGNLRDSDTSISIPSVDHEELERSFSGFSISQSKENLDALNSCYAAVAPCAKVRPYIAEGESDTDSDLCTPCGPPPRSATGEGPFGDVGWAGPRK

`C#Cc1ccc(S(=O)(=O)NC(=O)CCN2c3ccc(N=[N+]=[N-])cc3C3(CCCCC3)c3cc(N=[N+]=[N-])ccc32)cc1`: the outcome in experiment [1] was Active.

On to `O=C1S/C(=C/c2ccc(F)cc2)C(=O)N1CN1CCCCC1`, for which, in experiment [2], the outcome was Active.

For `O=C(O)CCn1c2ccc(Cl)cc2c2cc(Cl)ccc21`, the Emax in [3] came out at 11. For the same compound, the result in experiment [4] and in experiment [2] was Active. Further, the outcome in experiment [5] was inactive.

Regarding `O=C(O)COc1ccc(C23CC4CC(CC(C4)C2)C3)cc1`, the outcome in [2] was Active.

On to `CC1(C)c2cc(Cl)ccc2N(CCc2nnn[nH]2)c2ccc(Cl)cc21`, for which the result in experiment [6], in [7], in [8], in experiment [9] and in experiment [14] was Active. The outcome in experiment [10], in [11], in experiment [12] and in [13] was inactive.

As for `Cc1cccc(-n2ncc3c(NCCc4ccccc4)ncnc32)c1`, the result in experiment [4] was Active.

With `Cc1sc(-n2cccc2)c(C(=O)NCc2ccc(Cl)cc2)c1C`, the inhibition entry in experiment [15] was “Active”.
